Patent publication US20240368139A1, “NOVEL MODULATORS OF EHMT1 AND EHMT2 AND THERAPEUTIC USE THEREOF” (Tango Therapeutics, Inc., priority 2021, published 2024)

Experiments:
H3K9me2 in HCT116 cells = assay: HCT116 H3K9me2 in-cell western assay; type: cell-based; settings: Homo sapiens, HCT-116, 72 h, HCT116 cells, 72 hours incubation; read-out: H3K9me2 ICW IC50
Method in brief: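 HCT116 cells (2,000/well) were treated for 72 h at 37° C, 5% CO2, with ten two-fold dilutions from 10 μM in duplicate. After PFA fixation, cells were stained overnight at 4° C with anti-H3K9me2, then with an 800 CW secondary plus DRAQ5.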

hERG potassium channels = hERG potassium channels (Homo sapiens, UniProt Q12809); assay: In vitro hERG assay (SyncroPatch whole-cell recording); settings: room temperature
Chain of hERG potassium channels (Q12809 whole entry): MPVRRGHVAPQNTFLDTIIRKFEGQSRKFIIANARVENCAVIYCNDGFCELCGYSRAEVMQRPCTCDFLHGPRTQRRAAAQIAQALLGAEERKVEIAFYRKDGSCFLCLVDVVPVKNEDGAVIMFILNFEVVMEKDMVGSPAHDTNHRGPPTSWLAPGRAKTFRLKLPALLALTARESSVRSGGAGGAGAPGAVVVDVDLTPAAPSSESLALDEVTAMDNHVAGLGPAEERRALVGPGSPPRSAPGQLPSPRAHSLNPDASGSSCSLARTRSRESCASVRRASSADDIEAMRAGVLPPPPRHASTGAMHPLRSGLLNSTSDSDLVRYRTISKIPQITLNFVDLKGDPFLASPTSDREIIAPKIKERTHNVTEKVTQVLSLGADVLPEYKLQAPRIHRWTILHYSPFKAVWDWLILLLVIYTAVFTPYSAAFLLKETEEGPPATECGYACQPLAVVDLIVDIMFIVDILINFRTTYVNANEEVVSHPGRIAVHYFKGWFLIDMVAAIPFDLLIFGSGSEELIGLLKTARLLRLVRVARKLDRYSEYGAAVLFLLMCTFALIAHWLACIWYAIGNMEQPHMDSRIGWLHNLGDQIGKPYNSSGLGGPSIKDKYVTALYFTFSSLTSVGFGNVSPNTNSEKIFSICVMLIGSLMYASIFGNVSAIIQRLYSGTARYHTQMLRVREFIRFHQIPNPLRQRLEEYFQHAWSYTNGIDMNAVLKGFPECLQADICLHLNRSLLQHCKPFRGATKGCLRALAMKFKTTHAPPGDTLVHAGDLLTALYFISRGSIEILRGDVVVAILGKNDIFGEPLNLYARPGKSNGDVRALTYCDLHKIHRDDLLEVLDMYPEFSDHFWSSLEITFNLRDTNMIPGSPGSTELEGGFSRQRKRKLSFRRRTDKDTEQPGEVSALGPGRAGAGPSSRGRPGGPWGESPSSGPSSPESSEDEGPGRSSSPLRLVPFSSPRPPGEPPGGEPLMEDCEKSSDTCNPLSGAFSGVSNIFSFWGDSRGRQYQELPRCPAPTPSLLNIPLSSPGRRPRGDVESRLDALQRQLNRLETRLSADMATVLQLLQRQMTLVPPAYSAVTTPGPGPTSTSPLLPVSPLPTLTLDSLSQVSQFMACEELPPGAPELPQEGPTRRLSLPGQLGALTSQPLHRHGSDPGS

human EHMT1 982-1266 = target: T1, human EHMT1 982-1266 (Homo sapiens, UniProt Q9H9B1); assay: EHMT1 enzyme assay on histone peptide substrate (3H-SAM SPA); settings: EHMT1 IC50, recombinant human EHMT1 982-1266, histone peptide substrate
T1 sequence (Q9H9B1 982-1266): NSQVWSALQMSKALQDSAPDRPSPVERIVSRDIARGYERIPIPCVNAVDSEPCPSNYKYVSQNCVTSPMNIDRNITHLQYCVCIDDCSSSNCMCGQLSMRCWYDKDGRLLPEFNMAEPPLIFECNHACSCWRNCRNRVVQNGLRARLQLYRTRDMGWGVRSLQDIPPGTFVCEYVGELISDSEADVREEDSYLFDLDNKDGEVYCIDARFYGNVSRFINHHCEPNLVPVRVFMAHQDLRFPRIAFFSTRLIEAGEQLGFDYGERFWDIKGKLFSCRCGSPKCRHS

human EHMT2 913-1193 = target: T2, human EHMT2 913-1193 (Homo sapiens, UniProt Q96KQ7); assay: EHMT2 enzyme assay on histone peptide substrate (3H-SAM SPA); settings: EHMT2 IC50, recombinant human EHMT2 913-1193, histone peptide substrate
T2 sequence (Q96KQ7 913-1193): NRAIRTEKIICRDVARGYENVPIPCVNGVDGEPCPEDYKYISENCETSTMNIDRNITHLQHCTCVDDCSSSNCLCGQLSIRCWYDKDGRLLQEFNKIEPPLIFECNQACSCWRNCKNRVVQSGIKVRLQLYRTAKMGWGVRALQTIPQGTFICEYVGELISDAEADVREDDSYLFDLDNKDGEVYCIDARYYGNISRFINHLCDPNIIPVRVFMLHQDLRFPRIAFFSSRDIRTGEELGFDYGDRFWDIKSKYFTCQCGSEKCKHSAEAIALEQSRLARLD

| Structure (SMILES) | IC50 (H3K9me2 in HCT116 cells) [nM] | IC50 (human EHMT1 982-1266) [nM] | IC50 (human EHMT2 913-1193) [nM] | IC50 (hERG potassium channels; hERG IC50, CHO cells stably expressing hERG) [nM] | IC50 (hERG potassium channels; hERG IC50, SyncroPatch) [nM] |
| --- | --- | --- | --- | --- | --- |
| CNc1cc(C)nc(Nc2cc3c(c(C4=CCN(C)CCC4)c2)OCC3)n1 [Compound 111, N4,6-dimethyl-N2-[7-(1-methyl-2,3,4,7-tetrahydroazepin-5-yl)-2,3-dihydrobenzofuran-5-yl]pyrimidine-2,4-diamine] | < 100 | < 100 | < 100 | > 10000 | > 10000 |
| CNc1cc(C)nc(Nc2cc3c(c(OCCCN4CCCC4)c2)OCCC3)n1 [Compound 113, N4,6-dimethyl-N2-[8-(3-pyrrolidin-1-ylpropoxy)chroman-6-yl]pyrimidine-2,4-diamine] | 100 to 500 | 100 to 500 | 500 to 2000 | – | < 2000 |
| CNc1cc(C)nc(Nc2cc(OCCCN3CCCC3)c3c(c2)OCO3)n1 [Compound 118, N4,6-dimethyl-N2-[7-(3-pyrrolidin-1-ylpropoxy)-1,3-benzodioxol-5-yl]pyrimidine-2,4-diamine] | 100 to 500 | 100 to 500 | 500 to 2000 | – | 5000 to 10000 |
| CNc1cc(C)nc(Nc2cc(OCCCN3CCCC3)c3c(c2)OCCO3)n1 [Compound 122, N4,6-dimethyl-N2-[5-(3-pyrrolidin-1-ylpropoxy)-2,3-dihydro-1,4-benzodioxin-7-yl]pyrimidine-2,4-diamine] | 100 to 500 | 100 to 500 | 100 to 500 | – | 2000 to 5000 |
| CNc1cc(C)nc(Nc2cc3c(c(C4=CCNCCC4)c2)OCCO3)n1 [Compound 130, N4,6-dimethyl-N2-[5-(2,3,4,7-tetrahydro-1H-azepin-5-yl)-2,3-dihydro-1,4-benzodioxin-7-yl]pyrimidine-2,4-diamine] | < 100 | < 100 | < 100 | – | 2000 to 5000 |
| CNc1cc(C)nc(Nc2cc3c(c(C4=CCN(C)CCC4)c2)OCCO3)n1 [Compound 131, N4,6-dimethyl-N2-[5-(1-methyl-2,3,4,7-tetrahydroazepin-5-yl)-2,3-dihydro-1,4-benzodioxin-7-yl]pyrimidine-2,4-diamine] | < 100 | < 100 | 100 to 500 | – | 5000 to 10000 |
| CNc1cc(C)nc(Nc2cc3c(c(C4=CCNCCC4)c2)OCO3)n1 [Compound 137, N4,6-dimethyl-N2-[7-(2,3,4,7-tetrahydro-1H-azepin-5-yl)-1,3-benzodioxol-5-yl]pyrimidine-2,4-diamine] | < 100 | < 100 | < 100 | – | 5000 to 10000 |
| CNc1cc(C)nc(Nc2cc3c(c(C4=CCNCCC4)c2)OC(F)(F)O3)n1 [Compound 142, N2-[2,2-difluoro-7-(2,3,4,7-tetrahydro-1H-azepin-5-yl)-1,3-benzodioxol-5-yl]-N4,6-dimethyl-pyrimidine-2,4-diamine] | 100 to 500 | < 100 | < 100 | – | < 2000 |
| CNc1cc(C)nc(Nc2cc3c(c(C4=CCNCCC4)c2)OCCO3)c1 [Compound 144, N4,6-dimethyl-N2-[5-(2,3,4,7-tetrahydro-1H-azepin-5-yl)-2,3-dihydro-1,4-benzodioxin-7-yl]pyridine-2,4-diamine] | 100 to 500 | 100 to 500 | 100 to 500 | – | > 10000 |
| CNc1cc(C)nc(Nc2cc3c(c([C@H]4C[C@H]5CNC[C@H]5C4)c2)OCC3)n1 [Compound 157, N2-[7-(1,2,3,3a,4,5,6,6a-octahydrocyclopenta[c]pyrrol-5-yl)-2,3-dihydrobenzofuran-5-yl]-N4,6-dimethyl-pyrimidine-2,4-diamine] | 100 to 500 | 100 to 500 | 100 to 500 | – | > 10000 |
| CNc1cc(C)nc(Nc2cc3c(c(C4=CCNCCC4)c2F)OCC32CC2)n1 [Compound 172] | < 100 | < 100 | < 100 | – | 2000 to 5000 |
| CNc1cc(C)nc(Nc2cc3c(c(C4=CCNCC(O)C4)c2F)OCC3)n1 (stereo not drawn) [Compound 179, 5-[6-fluoro-5-[[4-methyl-6-(methylamino)pyrimidin-2-yl]amino]-2,3-dihydrobenzofuran-7-yl]-2,3,4,7-tetrahydro-1H-azepin-3-ol] | < 100 | < 100 | < 100 | – | > 10000 |
| CNc1cc(C)nc(Nc2cc3c(c(C4=CCN(C)CC(O)C4)c2F)OCC3)n1 (stereo not drawn) [Compound 180] | < 100 | < 100 | < 100 | – | > 10000 |
| CNc1cc(C)nc(Nc2c(F)c3c(c(C4=CCNCCC4)c2F)OCC3)n1 [Compound 187] | < 100 | < 100 | 100 to 500 | – | > 10000 |
| CNc1cc(C)nc(Nc2cc3c(c(C4=CCN(C)CCC4)c2F)OCCC3)n1 [Compound 190] | < 100 | < 100 | < 100 | – | 5000 to 10000 |
| CCN1CC=C(c2c(F)c(Nc3nc(C)cc(NC)n3)cc3c2OCC3)CCC1 [Compound 201] | < 100 | < 100 | < 100 | – | 5000 to 10000 |
| COCCNc1cc(C)nc(Nc2cc3c(c(C4=CCN(C)CCC4)c2F)OCC3)n1 [Compound 290] | < 100 | < 100 | 100 to 500 | – | > 10000 |
| Cc1cc(NCC(F)(F)F)nc(Nc2cc3c(c(C4=CCNCCC4)c2)OCC3)n1 [Compound 322] | 100 to 500 | < 100 | 100 to 500 | – | 2000 to 5000 |
| CNc1cc(C(C)C)nc(Nc2cc3c(c(C4=CCN(C)CCC4)c2)OCC3)n1 [Compound 323] | 100 to 500 | 100 to 500 | 100 to 500 | – | 2000 to 5000 |
| COCCNc1cc(C)nc(Nc2cc3c(c(C4=CCN(C)CCC4)c2)OCC3)n1 [Compound 324] | 100 to 500 | 100 to 500 | 100 to 500 | – | 5000 to 10000 |

Second part, led by results:

| IC50 (H3K9me2 in HCT116 cells) [nM] | IC50 (human EHMT1 982-1266) [nM] | IC50 (human EHMT2 913-1193) [nM] | Structure (SMILES) | IC50 (hERG potassium channels; hERG IC50, CHO cells stably expressing hERG) [nM] | IC50 (hERG potassium channels; hERG IC50, SyncroPatch) [nM] |
| --- | --- | --- | --- | --- | --- |
| < 100 | < 100 | < 100 | CNc1cc(C)nc(Nc2cc3c(c(C4=CCNCCC4)c2Cl)OCO3)n1 [Compound 160, N2-[6-chloro-7-(2,3,4,7-tetrahydro-1H-azepin-5-yl)-1,3-benzodioxol-5-yl]-N4,6-dimethyl-pyrimidine-2,4-diamine] | – | 5000 to 10000 |
| < 100 | < 100 | < 100 | CNc1cc(C)nc(Nc2cc3c(c(C4=CCNCCC4)c2Cl)OCCO3)n1 [Compound 166, N2-[6-chloro-5-(2,3,4,7-tetrahydro-1H-azepin-5-yl)-2,3-dihydro-1,4-benzodioxin-7-yl]-N4,6-dimethyl-pyrimidine-2,4-diamine] | – | < 2000 |
| < 100 | < 100 | < 100 | CNc1cc(C)nc(Nc2cc3c(c(C4=CCNCCC4)c2Cl)OCCC3)n1 [Compound 175] | – | 5000 to 10000 |
| < 100 | < 100 | < 100 | CNc1cc(C)nc(Nc2cc3c(c(C4=CCN(C)CCC4)c2Cl)OCCC3)n1 [Compound 176] | – | 2000 to 5000 |
| < 100 | < 100 | < 100 | CNc1cc(C)nc(Nc2cc3c(c(C4=CCNCCC4)c2C)OCC3)n1 [Compound 188, N4,6-dimethyl-N2-[6-methyl-7-(2,3,4,7-tetrahydro-1H-azepin-5-yl)-2,3-dihydrobenzofuran-5-yl]pyrimidine-2,4-diamine] | – | > 10000 |
| < 100 | < 100 | < 100 | CNc1cc(C)nc(Nc2cc3c(c(C4=CCNCCC4)c2Cl)OCC3)n1 [Compound 189, N2-[6-chloro-7-(2,3,4,7-tetrahydro-1H-azepin-5-yl)-2,3-dihydrobenzofuran-5-yl]-N4,6-dimethyl-pyrimidine-2,4-diamine] | – | > 10000 |
| < 100 | < 100 | < 100 | CNc1cc(C)nc(Nc2cc3c(c(C4=CCNCCC4)c2F)OCCO3)n1 [Compound 191] | – | 2000 to 5000 |
| < 100 | < 100 | < 100 | CNc1cc(C)nc(Nc2cc3c(c(C4=CCNCCC4)c2F)OCCC3)n1 [Compound 193, N2-[7-fluoro-8-(2,3,4,7-tetrahydro-1H-azepin-5-yl)chroman-6-yl]-N4,6-dimethyl-pyrimidine-2,4-diamine] | – | 5000 to 10000 |
| < 100 | < 100 | < 100 | COCCNc1cc(C)nc(Nc2cc3c(c(C4=CCNCCC4)c2F)OCC3)n1 [Compound 289, N2-[6-fluoro-7-(2,3,4,7-tetrahydro-1H-azepin-5-yl)-2,3-dihydrobenzofuran-5-yl]-N4-(2-methoxyethyl)-6-methyl-pyrimidine-2,4-diamine] | – | > 10000 |
